Reference: patent publication US20100317686A1, “N-HETEROCYCLIC-6-HETEROCYCLIC-IMIDAZO[1,2-a]PYRIDINE-2-CARBOXAMIDE DERIVATIVES, PREPARATION AND THERAPEUTIC USE THEREOF” (sanofi-aventis, priority 2008, published 2010)

Target: T1, murine Nurr1 receptor (Mus musculus, UniProt Q06219)
T1 construct: a cell line (N2A) endogenously expressing the murine Nurr1 receptor; host or cells: Neuro-2A (N2A) mouse neuroblastoma cells stably transfected with 8NBRE-luciferase
Experiment: In vitro activity on N2A cells (Neuro-2A stably transfected with 8NBRE-luciferase reporter)
Assay type: cell-based
Details: N2A-8NBRE cells, 24 hours incubation with product
Procedure: The activity of the compounds according to the invention was evaluated on a cell line (N2A) endogenously expressing the murine Nurr1 receptor and stably transfected with the NOT binding response element (NBRE) coupled to the luciferase reporter gene. The EC50 values are between 0.01 and 1000 nM. The tests were performed according to the procedure described hereinbelow.
The cell line Neuro-2A is obtained from a standard commercial source (ATCC). The clone Neuro-2A was obtained from a spontaneous tumour originating from a strain of albino mice A by R. J Klebe et al. This line Neuro-2A is then stably transfected with 8NBRE-luciferase. The N2A-8NBRE cells are cultured to the point of confluence in 75 cm^2 culture flasks containing DMEM supplemented with 10% foetal calf serum, 4.5 g/L of glucose and 0.4 mg/ml of geneticin. After culturing for one week, the cells are recovered with 0.25% trypsin for 30 seconds and then resuspended in DMEM without phenol red, containing 4.5 g/L of glucose and 10% Hyclone defatted serum, and placed in white, transparent-based 96-well plates. The cells are deposited at a rate of 60 000 per well in 75 μL for 24 hours before adding the products. The products are applied in 25 μL and incubated for a further 24 hours. On the day of measurement, an equivalent volume (100 μL) of Steadylite is added to each well, and the wells are then left for 30 minutes to obtain complete lysis of the cells and maximum production of the signal. The plates are then measured in a microplate luminescence counter, after having been sealed with an adhesive film. The products are prepared in the form of a 10^−2 M stock solution, and then diluted in 100% of DMSO. Each concentration of product is prediluted in culture medium before incubation with the cells thus containing 0.625% final of DMSO.

T1 sequence (Q06219 whole entry): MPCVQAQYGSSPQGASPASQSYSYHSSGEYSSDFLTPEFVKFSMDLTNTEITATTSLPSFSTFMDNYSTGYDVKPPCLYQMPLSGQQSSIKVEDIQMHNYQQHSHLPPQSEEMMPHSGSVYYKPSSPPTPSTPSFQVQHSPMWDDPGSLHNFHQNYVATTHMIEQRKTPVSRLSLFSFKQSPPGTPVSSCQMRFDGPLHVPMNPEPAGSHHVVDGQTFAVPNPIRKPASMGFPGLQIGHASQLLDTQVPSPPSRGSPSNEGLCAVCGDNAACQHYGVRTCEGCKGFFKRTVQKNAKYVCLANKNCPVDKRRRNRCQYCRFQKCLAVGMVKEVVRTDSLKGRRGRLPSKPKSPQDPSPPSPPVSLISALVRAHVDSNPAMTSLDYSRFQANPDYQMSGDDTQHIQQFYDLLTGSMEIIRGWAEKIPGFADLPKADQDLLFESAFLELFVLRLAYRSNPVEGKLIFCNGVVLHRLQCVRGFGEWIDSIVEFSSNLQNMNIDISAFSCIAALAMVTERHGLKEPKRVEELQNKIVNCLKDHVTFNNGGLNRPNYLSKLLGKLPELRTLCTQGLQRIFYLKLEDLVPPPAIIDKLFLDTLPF

Structure (SMILES) | EC50
Nc1cccc(-c2ccc3nc(C(=O)Nc4ccccn4)cn3c2)n1 [Compound 1, 6-(6-Aminopyridin-2-yl)-N-(pyridin-2-yl)imidazo[1,2-a]pyridine-2-carboxamide] | 16 nM
O=C(Nc1ccccn1)c1cn2cc(-c3c[nH]cn3)ccc2n1 [Compound 2, 6-(1H-Imidazol-4-yl)-N-(pyridin-2-yl)imidazo[1,2-a]pyridine-2-carboxamide] | 1.5 nM
O=C(Nc1nccs1)c1cn2cc(-c3ccccn3)ccc2n1 [Compound 7] | 0.8 nM
O=C(Nc1cc[nH]n1)c1cn2cc(-c3ccccn3)ccc2n1 [Compound 10, N-(1H-Pyrazol-3-yl)-6-(pyridin-2-yl)imidazo[1,2-a]pyridine-2-carboxamide] | 21 nM
O=C(Nc1ccon1)c1cn2cc(-c3ccc(CO)o3)ccc2n1 [Compound 22, 6-[5-(Hydroxymethyl)furan-2-yl]-N-(isoxazol-3-yl)imidazo[1,2-a]pyridine-2-carboxamide] | 2 nM
O=C(Nc1cccc(F)n1)c1cn2cc(-c3ccoc3)ccc2n1 [Compound 36, N-(6-Fluoropyridin-2-yl)-6-(furan-3-yl)imidazo[1,2-a]pyridine-2-carboxamide] | 0.4 nM
O=C(Nc1nncs1)c1cn2cc(-c3cc[nH]c3)ccc2n1 [Compound 51, 6-(1H-Pyrrol-3-yl)-N-(1,3,4-thiadiazol-2-yl)imidazo[1,2-a]pyridine-2-carboxamide] | 1.5 nM
O=C(Nc1nccs1)c1cn2cc(-c3cc[nH]n3)ccc2n1 [Compound 56, 6-(1H-Pyrazol-3-yl)-N-(thiazol-2-yl)imidazo[1,2-a]pyridine-2-carboxamide] | 1 nM
O=C(Nc1nncs1)c1cn2cc(-c3cc[nH]n3)ccc2n1 [Compound 58, 6-(1H-Pyrazol-3-yl)-N-(1,3,4-thiadiazol-2-yl)imidazo[1,2-a]pyridine-2-carboxamide] | 5.3 nM
